Data set [1] concerns the target Protein kinase C alpha type (Homo sapiens, UniProt P17252). The experiment in a line: Inhibition of PKC alpha (unknown origin) using RRRRRKGSFKRKA as substrate after 15 mins by spectrophotometry in presence of ATP.
Data set [2] addresses Protein kinase C delta type (Homo sapiens, UniProt Q05655). Nature of the data set: Inhibition of PKC delta (unknown origin) using ERMRPRKRQGSVRRRV as substrate after 15 mins by spectrophotometry in presence of ATP.
Data set [3] can be described thus: Half life in rat at 3 mg/kg, iv and 10 mg/kg, po. The data set is classed as ADME, organism-based. Particulars: in vivo.
The next data set concerns Blood. Nature of the data set: Inhibition of PKC theta in human whole blood assessed as IL-2 level after 1 hr by ELISA. In kind it is functional, tissue-based. (In general: ELISA stands for enzyme-linked immunosorbent assay.)
A short description of data set [4]: Oral bioavailability in rat at 10 mg/kg. The data set is classed as ADME, organism-based. To be noted: in vivo.
Data set [5] can be described thus: Clearance in rat at 3 mg/kg, iv and 10 mg/kg, po. The data set is classed as ADME, organism-based. To be noted: in vivo.
In data set [6] the target is T1, Protein kinase C theta type (Homo sapiens, UniProt Q04759). Nature of the data set: Inhibition of full-length recombinant PKC theta (unknown origin) using ERMRPRKRQGSVRRRV as substrate after 60 mins by scintillation counting analysis in presence of [gamma-33P]ATP.
T1 sequence (Q04759 whole entry): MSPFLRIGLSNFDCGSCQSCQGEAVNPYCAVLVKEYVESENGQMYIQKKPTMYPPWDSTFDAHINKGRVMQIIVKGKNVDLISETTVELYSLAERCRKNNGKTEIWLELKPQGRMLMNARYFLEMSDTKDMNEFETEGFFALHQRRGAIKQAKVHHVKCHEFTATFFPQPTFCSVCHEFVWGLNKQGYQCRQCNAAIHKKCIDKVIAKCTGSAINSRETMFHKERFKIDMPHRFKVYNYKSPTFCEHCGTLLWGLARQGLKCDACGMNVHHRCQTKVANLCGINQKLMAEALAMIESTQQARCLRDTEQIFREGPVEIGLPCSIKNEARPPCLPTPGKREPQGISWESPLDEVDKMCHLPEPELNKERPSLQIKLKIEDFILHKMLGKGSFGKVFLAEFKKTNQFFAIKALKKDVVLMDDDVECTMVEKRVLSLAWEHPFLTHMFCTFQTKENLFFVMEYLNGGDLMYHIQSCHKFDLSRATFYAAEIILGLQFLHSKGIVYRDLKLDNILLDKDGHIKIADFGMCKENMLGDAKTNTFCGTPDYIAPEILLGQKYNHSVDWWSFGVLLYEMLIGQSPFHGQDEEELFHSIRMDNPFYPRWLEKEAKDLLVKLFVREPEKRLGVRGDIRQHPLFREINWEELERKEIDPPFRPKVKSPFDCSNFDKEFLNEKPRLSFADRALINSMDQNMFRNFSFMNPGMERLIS
Data set [7] has as its target T1, Protein kinase C theta type. The experiment in a line: Inhibition of PKC-theta in human PBMC cells assessed as inhibition of IL-2 after 24 hrs by bead-based FLISA assay. The data set is classed as cell-based.

Some results are limits rather than exact numbers.

Chain of Protein kinase C delta type (Q05655 whole entry): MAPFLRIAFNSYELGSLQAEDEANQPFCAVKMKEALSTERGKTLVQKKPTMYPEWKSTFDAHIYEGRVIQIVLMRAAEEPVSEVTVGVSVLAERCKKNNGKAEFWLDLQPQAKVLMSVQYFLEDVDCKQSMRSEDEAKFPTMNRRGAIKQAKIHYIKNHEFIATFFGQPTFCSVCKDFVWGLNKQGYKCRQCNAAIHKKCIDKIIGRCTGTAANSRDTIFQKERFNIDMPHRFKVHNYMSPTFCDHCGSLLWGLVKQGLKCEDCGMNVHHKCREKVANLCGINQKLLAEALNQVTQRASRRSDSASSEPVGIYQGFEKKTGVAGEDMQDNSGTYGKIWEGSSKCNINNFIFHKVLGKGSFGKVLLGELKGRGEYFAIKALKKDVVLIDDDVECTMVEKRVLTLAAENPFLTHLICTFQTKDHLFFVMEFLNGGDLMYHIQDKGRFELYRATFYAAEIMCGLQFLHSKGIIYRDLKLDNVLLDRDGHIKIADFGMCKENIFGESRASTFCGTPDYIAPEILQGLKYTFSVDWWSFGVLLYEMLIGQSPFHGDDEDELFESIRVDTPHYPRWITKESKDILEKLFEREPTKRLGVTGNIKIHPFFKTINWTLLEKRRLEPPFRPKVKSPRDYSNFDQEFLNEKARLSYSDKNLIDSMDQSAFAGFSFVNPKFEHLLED

Usually Ki stands for the dissociation constant of the complex between target and ligand, obtained from inhibition or displacement. For `Nc1ncccc1C(=O)c1cccc(N2CCCNCC2)n1`, in data set [1], the Ki was 428 nM.

In the case of `CC(C)[C@@](C)(O)[C@H]1CN(c2ccc(F)c(-c3n[nH]c4ncccc34)n2)CCN1`, the Ki in data set [2] is more than 1250 nM.

By half-life is commonly meant the time needed for the level to fall by half in the phase considered. A lower half-life goes with fast loss. By IC50 is commonly meant the concentration that gives 50% inhibition. Broadly, the bioavailability is dose-corrected exposure relative to a reference, in per cent. A higher bioavailability goes with good availability. In data set [3], `CC(C)[C@@](C)(O)[C@@H]1CN(c2ccc(F)c(-c3n[nH]c4ncccc34)n2)CCN1` had a half-life of 2.6 h. In addition, the Ki in data set [1] turned out to be 549 nM; in data set [2] it was 57 nM. Moreover, in the data set on Blood, the IC50 amounted to 200 nM. The bioavailability in data set [4] is 36%. In data set [5], the clearance is 39 mL/min/kg.

Regarding `CC(C)C[C@@H]1CN(c2ccc(F)c(-c3n[nH]c4ncccc34)n2)CCN1`, in data set [2], the Ki was determined as 792 nM.

For `CC(C)[C@](C)(O)[C@H]1CN(c2ccc(F)c(-c3n[nH]c4ncccc34)n2)CCN1`, the inhibition constant (Ki) in data set [2] is more than 1250 nM.

On to `CC(C)[C@@](C)(O)[C@@H]1CN(c2nc(-c3n[nH]c4ncccc34)c(F)cc2F)CCN1`, for which, in data set [3], the half-life was 1.7 h. Also, the Ki in data set [1] amounted to 198 nM; in data set [6], 0.1 nM; in data set [2], 18 nM. Also, the IC50 with Blood was determined as 80 nM; in data set [7], 2 nM. Moreover, the bioavailability in data set [4] worked out at 30%. Besides, the clearance in data set [5] was found to be 9.5 mL/min/kg.

`CC(C)[C@](C)(O)[C@@H]1CN(c2ccc(F)c(-c3n[nH]c4ncccc34)n2)CCN1`: the Ki in data set [2] turned out to be 120 nM.

`CC(C)[C@@](C)(O)[C@@H]1CN(c2ccc(Cl)c(-c3n[nH]c4ncccc34)n2)CCN1`: the Ki is 1240 nM in data set [1], 21 nM in data set [6] and 547 nM in data set [2]. In addition, the concentration for half-maximal inhibition (IC50) in data set [7] turned out to be 170 nM.

`CC(C)[C@@](C)(O)[C@@H]1CN(c2ccc(C(F)(F)F)c(-c3n[nH]c4ncccc34)n2)CCN1` (racemic): the Ki is more than 1250 nM in data set [1], 20 nM in data set [6] and 957 nM in data set [2]. Also, the IC50 in data set [7] was 420 nM.

`CC(C)[C@@](C)(O)[C@@H]1CN(c2nc(-c3n[nH]c4ncccc34)c(F)cc2C#N)CCN1`: the Ki in data set [1] was more than 1250 nM.

As for `CC(C)[C@@](C)(O)[C@@H]1CN(c2nc(-c3n[nH]c4ncccc34)c(F)cc2CO)CCN1`, the inhibition constant Ki in data set [1] is 205 nM; in data set [6], 0.1 nM; in data set [2], less than 10 nM. Further, the IC50 in data set [7] is 1 nM.

Turning to `Fc1ccc(N2CCNCC2)nc1-c1n[nH]c2ncccc12`, the inhibition constant Ki is more than 1250 nM in data set [1], 60 nM in data set [6] and 722 nM in data set [2].

As to `CC(C)[C@@](C)(O)[C@@H]1CN(c2nc(-c3n[nH]c4ncccc34)c(F)cc2O)CCN1`, the inhibition constant Ki in data set [1] was 56 nM; in data set [6] it was 0.1 nM; in data set [2], less than 10 nM. Further, the concentration for half-maximal inhibition (IC50) in data set [7] came out at 4 nM.

Consider `CC(C)C[C@H]1CN(c2ccc(F)c(-c3n[nH]c4ncccc34)n2)CCN1`, for which, in data set [2], the Ki amounted to 358 nM.

As to `CC(C)C[C@H]1CN(c2ccc(F)c(-c3n[nH]c4ncccc34)n2)C[C@@H](C)N1`, the Ki worked out at 5 nM in data set [6] and 130 nM in data set [2].

As for `CC(C)C[C@H]1CN(c2ccc(F)c(-c3n[nH]c4ncccc34)n2)C[C@H](C)N1`, the Ki in data set [6] was more than 700 nM; in data set [2], more than 1250 nM.

`c1cc(-c2n[nH]c3ncccc23)nc(N2CCNCC2)c1`: the Ki in data set [1] was found to be 1230 nM.

For the origin of these results see ChEMBL document CHEMBL2321833, “Design and optimization of selective protein kinase C θ (PKCθ) inhibitors for the treatment of autoimmune diseases” (J Med Chem, 2013).
